Measurements taken from US7323569B2, “7-phenylpyrazolopyridine compounds” (Eisai R&D Management Co., Ltd., priority 2002, dated 2008).
Read-outs that look alike come from different tables or passages of the source.

System: CYP3A4
Settings: human, hepatocytes, 48 h
Procedure: Evaluation of Drug Metabolizing Enzyme (CYP3A4) Inducibility Using Cryopreserved Human Hepatocyte
Cryopreserved hepatocytes (In Vitro Technology) were rapidly thawed while stirring at 37° C., and then ice-cooled William's Medium E (10% FBS, +PSG) was slowly added to the cells prior to centrifugation at 500 rpm for 5 minutes. After removing the supernatant, the obtained hepatocytes were diluted with ice-cooled William's Medium E to a concentration of 5×10^5 cells/mL, seeded on a 48-well collagen coated plate (BD Biosciences) at 1×10^5 cells/cm^2 and incubated for about 24 hours at 37° C., 5% CO2, after which the medium was changed with Hepato-STIM™ (BD Biosciences) (+EGF, PSG, −FBS) and culture was maintained for another 24 hours under conditions of 37° C., 5% CO2. At approximately 48 hours after the cell seeding, the test compound or rifampicin (SIGMA, positive control) in the form of a diluted solution (using Hepato-STIM™ (+EGF, PSG, −FBS)) was added, hepatocyte were incubated for about 24 hours under conditions of 37° C., 5% CO2, and the culture medium was changed with medium containing a freshly prepared dilution of the test compound or rifampicin prior to further incubation for 24 hours under the same conditions. After incubation, the cells were washed once with PBS, and the total RNA was extracted using a Qiagen RNeasy Mini kit (Qiagen). The cDNA was synthesized by reverse-transcription of extracted using TaqMan Reverse Transcription Reagents (Applied Biosystems). The reverse transcription reaction was carried out using oligo dT as primer, with treatment at 25° C. for 10 minutes followed by treatment at 48° C. for 60 minutes, after which the reverse transcriptase was inactivated by treatment at 95° C. for 10 minutes. The obtained cDNA was supplied to a PCR using a Gene Amp PCR system 9700. The obtained cDNA was quantitated using an SYBR Green PCR Core Reagents kit (Applied Biosystems), and the human CYP3A4 and GAPDH mRNA was quantitated using an ABI7700 (Applied Biosystems). The abbreviations used in the test example are explained below. • FBS: Fetal Bovine Serum • PSG: Penicillin (100 U/ml), Streptomycin (100 μg/ml), Glutamine (2 mM) • EGF: Epidermal Growth Factor • GAPDH: Glyceraldehyde-3-Phosphate Dehydrogenase
(2) Calculation of CYP3A4 Inducibility
Next, for comparison of each test run, the differences between the value of the CYP3A4 mRNA amount divided by the GAPDH mRNA amount with addition of the test compound at various concentrations and with addition of the negative control were calculated as percentages, with 100% being defined as the difference between the values of the CYP3A4 mRNA amount divided by the GAPDH mRNA amount for the positive control and negative control, to determine the inducibility of each test compound.

Row | CYP3A4 inducibility, % of Positive Control (0.03 μM) [%] | CYP3A4 inducibility, % of Positive Control (0.1 μM) [%] | CYP3A4 inducibility, % of Positive Control (0.3 μM) [%] | CYP3A4 inducibility (1 μM) [%] | CYP3A4 inducibility, % of Positive Control (1 μM) [%] | CYP3A4 inducibility, % of Positive Control (3 μM) [%] | CYP3A4 inducibility, % of Positive Control (10 μM) [%] | SMILES
1 | 6 | 7 | 12 | ≤ 40 | 20 | 36 | 65 | CCc1nn2c(-c3c(OC)cc(COC)cc3OC)cccc2c1N(CC1CCOCC1)CC1CC1 [Example 1, N-Cyclopropylmethyl-N-7-[2,6-dimethoxy-4-(methoxymethyl)phenyl]-2-ethylpyrazolo[1,5-a]pyridin-3-yl-N-tetrahydro-2H-4-pyranylmethylamine]
2 | 3 | 3 | 7 | ≤ 40 | 25 | 23 | 34 | CCOCc1cc(OC)c(-c2cccc3c(N(CC4CCOCC4)CC4CC4)c(CC)nn23)c(OC)c1 [Example 3, N-Cyclopropylmethyl-N-7-[4-(ethoxymethyl)-2,6-dimethoxyphenyl]-2-ethylpyrazolo[1,5-a]pyridin-3-yl-N-tetrahydro-2H-4-pyranylmethylamine]
3 | 2 | 3 | 11 | ≤ 40 | 25 | 49 | 59 | COCc1cc(OC)c(-c2cccc3c(N(CC4CCOCC4)CC4CC4)c(SC)nn23)c(OC)c1 [Example 59, N-Cyclopropylmethyl-N-[7-[2,6-dimethoxy-4-(methoxymethyl)phenyl]-2-(methylsulfanyl)pyrazolo[1,5-a]pyridin-3-yl]-N-tetrahydro-2H-4-pyranylmethylamine]
